The values below come from patent EP3184514A1, “AUTOPHAGY INHIBITORS” (Deutsches Krebsforschungszentrum, priority 2015, dated 2017).

SMILES strings stand for the structures. Like-named read-outs stand apart in the source and are kept apart here.

Experiment [1] deals with T1, LC3B (Homo sapiens, UniProt Q9GZQ8).
T1 construct: made in house; host or cells: E. coli Rosetta (DE3)
Nature of the experiment: AlphaScreen interaction displacement assay (GST-LC3B / biotin-LIRtide). The format is binding. Here is the method:
The AlphaScreen assay contained 50 mM Tris (pH 7.5), 100 mM NaCl, 0.01% Tween 20, 2 mM DTT, 1 % DMSO and 2-30 nM GST-LC3B and biotin-LIRtide 2-30 nM. The concentrations of GST-LC3B and biotin-LIRtide were experimentally chosen from a cross-titration assay exploring the different combinations of for each batch of protein used and when a new batch of buffer was prepared.
A gene encoding for human LC3B protein inserted in a pET-GST expression vector was used as a template. Rosetta (DE3) competent cells were transformed by started procedure, plated on an LB agar plate with ampicillin (100 µg/ml) and left overnight at 37 °C. Overnight culture was prepared from a single colony and shaken at 180 rpm at 37 °C. LB medium with ampicillin was inoculated with overnight culture (10 ml per 500 ml of LB) and shaken until the optical density at 600 nm (OD600) reached a value of approximately 0.6. Protein expression was then induced with 400 µM IPTG and further incubated for 4 hours. Bacterial culture was centrifuged for 20 minutes at 6000 rpm at 4 °C. The pellet was then resuspended in lysis buffer (20 mM TRIS-HCl pH 7.5, 10 mM EDTA, 5 mM EGTA, 150 mM NaCl, 0.5 % NP40, 1 % Triton X-100, 1 mM DTT, 2 mg/ml lysozyme, 0.05 U/µl benzonase, 1x protease inhibitor cocktail). Lysate was then stored at -20 °C over night. Sample was thawed in water bath and sonicated on ice (40 % amplitude, 30 seconds pulse/30 seconds pause cycle). Lysate was centrifuged at 10000xg at 4 °C for half an hour. Meanwhile, 500 µl of glutathione sepharose beads was equilibrated with lysis buffer and then added to the supernatant. The mixture was incubated and rotated at room temperature for 2 hours. After binding of the protein to the beads, beads were spun down at 500xg at 4 °C for 5 minutes. Pellet was then washed with cold wash buffer at least four times (20 mM Tris-HCl pH 7.5, 10 mM EDTA, 5 mM EGTA, 150 mM NaCl, 1 mM DTT), dried and stored in 5 % glycerol at 4 °C.
Background: In Alpha technology, singlet oxygen from a donor bead excites a nearby acceptor bead.

In experiment [2] the test system is LC3B. Nature of the experiment: cellular autophagy screening: LC3B spots by immunocytochemistry and automated confocal imaging. The format is cell-based. The settings on record: relative to negative DMSO control, 100 µM, 1 hour; for LC3B Inhibition cell based Fold increase of LC3B spots: Table 2a; for LC3B inhibition cell based Fold increase of LC3B spots [DMSO control 1.0]: Table 1-a, n.e. means no effect. Here is the method:
For screening purposes, cells were seeded in 384 well plates and left over night for attachment.
Afterwards, medium was removed and 4 % (w/v) paraformaldehyde (PFA) in PBS buffer was added to the cells for 20 minutes, incubated at room temperature. Cells were permeabilized with 0.1 % (v/v) Triton X-100 for 10 min at room temperature and washed with PBS. Cells were blocked with 3 % (w/v) bovine serum albumin (BSA) in PBS for 45 minutes at 37 °C and then incubated with anti-LC3B (PM036, MBL) or anti-p62 (PM045 or M162-3, MBL) primary antibody diluted in 0.3 % BSA (1:2000 or 1:500) for 1.5-2 hours at 37 °C. Cells were washed three times with PBS.
384 well plates were then analyzed with an automated confocal microscope Opera (PerkinElmer) enabling high throughput high content screening image analysis. […] A water immersion 60x objective was used for optical slicing and stacking (5x0.5 µm stacks). […] Signal was detected with a fast gated CCD camera. Acapella software (PerkinElmer) is an algorithm based high content imaging and analysis software used in multi-parametric multiplex assays. Acapella was used to follow cell viability (i.e. number of cells) and the number of LC3B and p62 spots per cell.
The LC3B protein is a ubiquitin-like protein that can be conjugated to phosphatidylethanolamine (PE) in the membrane of the incipient autophagosome. The nonlipidated and lipidated forms are usually referred to as LC3B-I and LC3B-II, respectively. […] Autophagic flux is often inferred on the basis of LC3B-II turnover, measured by western blot (WB) or immunofluorescence (IF) in the presence and absence of lysosomal degradation. […] Lysosomal degradation can be prevented e.g. through the use of compounds that neutralize the lysosomal pH such as Bafilomycin A1 (BafA1) or chloroquine (CQ). […] An additive or supra-additive effect in LC3B-II levels (WB) and LC3B-positive punctae numbers (IF) may indicate that the treatment enhances autophagic flux. […] This assay can be complemented by simultaneous monitoring of autophagosomal substrates or autophagosomal substrate receptors (e.g. SQSTM1/p62) by WB and/or IF. For example, an increase in LC3B-II levels in combination with the accumulation of SQSTM1/p62 is indicative of a blockage of the autophagy pathway at terminal stages.

The mark [3] stands for this setting: Table 2a, read-out: LC3B Inhibition cell free IC50.
[4] abbreviates: Table 1-a, n.e. means no effect, read-out: LC3B inhibition cell free IC50.
The mark [5] stands for this setting: Table 1-a, n.e. means no effect.

Usually IC50 stands for the point on the concentration scale where inhibition reaches its midpoint. In the case of `CC(C)=CCc1cc(C(=O)Nc2c(O)c3ccc(O)c(C)c3oc2=O)ccc1O` [Compound 2-1, N-(4,7-dihydroxy-8-methyl-2-oxo-2H-chromen-3-yl)-4-hydroxy-3-(3-methylbut-2-en-1-yl)benzamide], the IC50 at LC3B [1] (setting [3]) was determined as 87 µM. Turning to `COC1C(OC(N)=O)C(OC(C)=O)C(Oc2ccc3c(O)c(NC(=O)c4ccc(OC(C)=O)c(CC=C(C)C)c4)c(=O)oc3c2C)OC1(C)C` (centres unmarked) [Compound 2-2], the IC50 on LC3B [1] (setting [3]) stood at 19.3 µM. In the experiment with LC3B [2], the “LC3B Inhibition cell based Fold increase of LC3B spots” value worked out at 1.5. Turning to `COC1C(OC(N)=O)C(O)C(Oc2ccc3c(O)c(NC(=O)c4ccc(O)c(CCC(C)C)c4)c(=O)oc3c2C)OC1(C)C` (centres unmarked) [Compound 2-4, 5-hydroxy-6-((4-hydroxy-3-(4-hydroxy-3-isopentylbenzamido)-8-methyl-2-oxo-2H-chromen-7-yl)oxy)-3-methoxy-2,2-dimethyltetrahydro-2H-pyran-4-y/carbamate], the IC50 at LC3B [1] (setting [3]) came out at 4.8 µM. The “LC3B Inhibition cell based Fold increase of LC3B spots” value in the experiment with LC3B [2] is reported as 1.2. On the same counts, the results for `COC1C(OC(N)=O)C(OC(C)=O)C(Oc2ccc3c(O)c(NC(=O)C(Cc4ccccc4)NC(=O)OC(C)(C)C)c(=O)oc3c2C)OC1(C)C` (centres unmarked) [Compound 2-7] are 145 µM and 1.0. On the same counts, the results for `Cc1c(O)ccc2c(O)c(NC(=O)C(Cc3ccccc3)NC(=O)OC(C)(C)C)c(=O)oc12` (centres unmarked) [Compound 2-8] are 122 µM and 1.0. Take `Cc1c(O)ccc2c(O)c(NC(=O)C(CC(C)C)NC(=O)OC(C)(C)C)c(=O)oc12` (centres unmarked) [Compound 2-9]: the IC50 on LC3B [1] (setting [3]) turned out to be 73.3 µM. The “LC3B Inhibition cell based Fold increase of LC3B spots” value in the experiment with LC3B [2] is recorded as 1.2.

For the compound `Cc1c(O)ccc2c(O)c(NC(=O)C(CCc3ccccc3)NC(=O)OC(C)(C)C)c(=O)oc12` (centres unmarked) [Compound 2-10], the IC50 on LC3B [1] (setting [3]) is 155 µM. Also, the “LC3B Inhibition cell based Fold increase of LC3B spots” value in the experiment with LC3B [2] came to 1.0. On the same counts, the results for `Cc1c(O)ccc2c(O)c(NC(=O)c3cccc(-c4ccccc4)c3)c(=O)oc12` [Compound 2-11] are 63 µM and 1.1.

For `Cc1c(O)ccc2c(O)c(NC(=O)c3cccc(Oc4ccccc4)c3)c(=O)oc12` [Compound 2-12], the IC50 on LC3B [1] (setting [3]) was found to be 54 µM. Further, in the experiment on LC3B [2], the “LC3B Inhibition cell based Fold increase of LC3B spots” value was 1.1. As for `Clc1ccc(CSC2=NCN(Cc3cccnc3)CN2)cc1` [Compound I-2, 6-((4-chlorobenzyl)thio)-3-(pyridin-3-ylmethyl)-12,3,4-tetrahydro-1,3,5-triazine], the IC50 at LC3B [1] (setting [4]) was 16 µM. The “LC3B inhibition cell based Fold increase of LC3B spots [DMSO control 1.0]” value in the experiment on LC3B [2] was found to be 3.2. In the case of `Fc1ccc(CSC2=NCN(Cc3cccnc3)CN2)cc1` [Compound I-3, 6-((4-fluorobenzyl)thio)-3-(pyridin-3-ylmethyl)-1,2,3,4-tetrahydro-1,3,5-triazine], the IC50 at LC3B [1] (setting [4]) came to 23.6 µM. In addition, the “LC3B inhibition cell based Fold increase of LC3B spots [DMSO control 1.0]” value in the experiment on LC3B [2] is given as 1.8. The matching figures for `c1ccc(CSC2=NCN(Cc3cccnc3)CN2)cc1` [Compound I-4, 6-(benzylthio)-3-(pyridin-3-ylmethyl)-1,2,3,4-tetrahydro-1,3,5-triazine]: 19.5 µM and 1.7. In the case of `FC(F)(F)c1ccc(CSC2=NCN(Cc3cccnc3)CN2)cc1` [Compound I-5, 3-(pyridin-3-ylmethyl)-6-((4-(trifluoromethyl)benzyl)thio)-1,2,3,4-tetrahydro-1,3,5-triazine], the IC50 on LC3B [1] (setting [4]) amounted to 30.9 µM. The “LC3B inhibition cell based Fold increase of LC3B spots [DMSO control 1.0]” value in the experiment with LC3B [2] was found to be 3.2. The matching figures for `COc1ccc(CSC2=NCN(Cc3cccnc3)CN2)cc1` [Compound I-6, 6-((4-methoxybenzyl)thio)-3-(pyridin-3-ylmethyl)-1,2,3,4-tetrahydro-1,3,5-triazine]: 12.3 µM and 1.8. The matching figures for `CC(C)CCNC(=O)c1ccc(CSC2=NCN(Cc3cccnc3)CN2)cc1` [Compound I-7, N-isopentyl-4-(((5-(pyridin-3-ylmethyl)-1,4,5,6-tetrahydro-1,3,5-triazin-2-yl)thio)methyl)benzamide]: 26.6 µM and 3.1.

For `Brc1cccc(CSC2=NCN(Cc3cccnc3)CN2)c1` [Compound I-8, 6-((3-bromobenzyl)thio)-3-(pyridin-3-ylmethyl)-1,2,3,4-tetrahydro-1,3,5-triazine], the IC50 on LC3B [1] (setting [4]) worked out at 21 µM. Moreover, the “LC3B inhibition cell based Fold increase of LC3B spots [DMSO control 1.0]” value in the experiment with LC3B [2] came out at 3.0. The matching figures for `COc1cccc(CSC2=NCN(Cc3cccnc3)CN2)c1` [Compound I-9, 6-((3-methoxybenzyl)thio)-3-(pyridin-3-ylmethyl)-1,2,3,4-tetrahydro-1,3,5-triazine]: 18.5 µM and “n.e”. The matching figures for `c1ccc(Oc2cccc(CSC3=NCN(Cc4cccnc4)CN3)c2)cc1` [Compound I-10, 6-((3-phenoxybenzyl)thio)-3-(pyridin-3-ylmethyl)-1,2,3,4-tetrahydro-1,3,5-triazine]: 1 µM and 6.1. On the same counts, the results for `CC(C)CCNC(=O)c1cccc(CSC2=NCN(Cc3cccnc3)CN2)c1` [Compound I-11, N-isopentyl-3-(((5-(pyridin-3-ylmethyl)-1,4,5,6-tetrahydro-1,3,5-triazin-2-yl)thio)methyl)benzamide] are 12.2 µM and “n.e”. Turning to `Fc1ccc(CN2CN=C(SCc3cccc(Oc4ccccc4)c3)NC2)cc1F` [Compound I-18, 3-(3,4-difluorobenzyl)-6-((3-phenoxybenzyl)thio)-1,2,3,4-tetrahydro-1,3,5-triazine], the “LC3B inhibition cell free IC50” value at LC3B [1] (setting [5]) is recorded as “n.e”. As to `Fc1cccc(CN2CN=C(SCc3ccc(Br)cc3)NC2)c1` [Compound I-19, 6-((4-bromobenzyl)thio)-3-(3-fluorobenzyl)-1,2,3,4-tetrahydro-1,3,5-triazine], at LC3B [1] (setting [5]), the “LC3B inhibition cell free IC50” value is “n.e”. Still for that read-out and setting: in the case of `Fc1cccc(CN2CN=C(SCc3cccc(Oc4ccccc4)c3)NC2)c1` [Compound I-20, 3-(3-fluorobenzyl)-6-((3-phenoxybenzyl)thio)-1,2,3,4-tetrahydro-1,3,5-triazine] it was “n.e”. For the compound `CCN(CC)CCCC(C)Nc1ccnc2cc(Cl)ccc12` (centres unmarked) [chloroquine, reference compound], in the experiment with LC3B [2], the “LC3B inhibition cell based Fold increase of LC3B spots [DMSO control 1.0]” value stood at 4.4 and the “LC3B Inhibition cell based Fold increase of LC3B spots” value is on record as 4.4. In the case of `CCC(=O)N1CCN(c2ccc(-n3c(=O)ccc4cnc5ccc(-c6cnc7ccccc7c6)cc5c43)cc2C(F)(F)F)CC1` [torin 1, reference compound], in the experiment on LC3B [2], the “LC3B inhibition cell based Fold increase of LC3B spots [DMSO control 1.0]” value is reported as 3.1 and the “LC3B Inhibition cell based Fold increase of LC3B spots” value is listed as 3.1.
